{"source": "patent US8524193B2", "about": "“Non-invasive diagnostic imaging technology for mitochondria using radiolabeled lipophilic salts” (The Johns Hopkins University, priority 2002, dated 2013)", "key": {"[1]": {"assay": "C-11-TPMP uptake kinetics in the myocardium (PET)", "assay_type": "in vivo", "settings": "dog, five-fold increase (by adenosine) in flow", "method": "We have examined the performance of C-11-triphenyl phosphonium cation (TPMP) for assessing regional myocardial flow in dog using PET (Kraus, 1994).\nMethods: Four mCi of C-11-TPMP were introduced i.v., and dynamic images of increasing duration (15 sec to 20 min) were acquired over a total time of 85 min. Images were acquired on the GE 4096+ PET scanner (15 slices, 6.5 mm slice thickness). Images were reconstructed using backprojection, and corrected for attenuation. A detailed description of methods appears in Kraus, 1994. These images show excellent visualization of the myocardium with a high contrast to the surrounding lung tissue. During the plateau time period heart/lung ratio was >14:1, and heart/blood >100:1. Under baseline conditions (flow=69 ml/min/100 g), the extraction fraction is very high (91%). […] To investigate the relationship between myocardial blood flow and C-11-TPMP uptake in the heart, the LAD was occluded and the C-11-TPMP accumulation in tissue samples compared to microsphere determined regional myocardial blood flow. A significant correlation (r=0.93, p<0.01) was found at 5 min after LAD occlusion (FIG. 12). The non-infracted/infracted myocardium ratio was 12.1±2.4. […] Thallium 201 extraction under baseline flow is about 80%, decreasing to about 60% for five-fold increases in flow rate. […]"}, "[2]": {"assay": "Stability of fluorination: total bone uptake", "assay_type": "in vivo", "settings": "mice, 5 and 30 min p.i., compared to mice injected with F-18 only; listed as F-18-FBnTP", "method": "Methods: Mice were injected via the tail vein with 25 μCi of F-18-PhC; 5 and 30 min p.i., the left or right femur bone was removed, and bone radioactivity together with standard (1:100 of injected dose) were counted in a gamma counter. A parallel group of mice was injected with free fluorides (F-18). Three mice of each group were studied at each time point. Radioactivity is represented as percentage of injected dosed (% ID) and total bone uptake was calculated as activity in femur bone ×20."}, "[3]": {"system": "Human lung carcinoma H549 cells", "assay": "Mitochondria membrane potential (MMP)-dependent cellular uptake with CCCP", "assay_type": "cell-based", "settings": "CCCP 30, 60, 90, 120 μM, 30 min", "method": "The extent of MMP-dependent cellular uptake of F-18-FBnTP was assessed using CCCP, a known protonophore that selectively abolishes the MMP.\nMethods: Human lung carcinoma H549 cells ([…]) were incubated with 0.1 μCi/ml F-18-FBnTP for 30 min. Samples of the suspension (1 mL) were transferred to Eppendorf's vials and placed in a 370 C bath. Varying concentrations (30, 60, 90, 120 μM) of CCCP were added to the suspension. After 30 min of incubation with CCCP, the Eppendorf vials were centrifuged for 1 min, and activity in pellet and supernatant was immediately counted."}, "[4]": {"assay": "Stability of F-18-FBnTP in plasma after injection into mice (column switch HPLC)", "assay_type": "in vivo", "method": "Radiochemical purity of F-18-FBnTP and its stability in vivo was measured by chromatography.\nSamples of mouse plasma were obtained from heparinized whole bloodcollected 5, 15 and 30 min p.i. of the tracer. To eliminate binding to plasma proteins, the plasma was added to solid urea to give a final concentration of 8M urea. The plasma-urea was loaded into a column switch HPLC system (Hilton 2000), in which the plasma passes through a small capture column (Oasis Sorbent, Waters Corp.), which retains lipophilic solutes, while polar species fail to bind and are detected as they pass through a positron detector. After four minutes, the capture column is free of plasma proteins and polar species. Then, the contents of the capture column was swept onto an analytical column (Prodigy ODS-3, Phenomenex) by 40% acetonitrile, 60% triethylamine acetate buffer pH 4.1 at 1 mL/min, where separation of the parent compound and lipophilic metabolites occurs. The effluent from the analytical column also passes through the positron flow detector. The proportion of each species is determined from the area under each chromatographic peak. Results: Radiochemical purity of the 18F-labeled FBnTP was more than 95%. […] FIG. 1 depicts the chromatogram of plasma collected 30 min p.i., and the parental compound incubated for a similar time period (30 min) in buffered saline. […]"}, "[5]": {"assay": "F-18-FBnTP uptake kinetics in the myocardium (PET)", "assay_type": "in vivo, Mongrel dogs", "settings": "dog PET", "method": "Methods: Mongrel dogs (BW=35 kg) were injected with 3-4 mCi of F-18-FBnTP. Images were acquired on a GE 4096+ scanner (15 slices, 6.5 mm slice thickness). PET scans of increasing duration (15 sec to 20 min) were acquired over a total time of 85 min post-injection. Arterial blood samples (0.5 ml in volume) were collected every few seconds for the first 3 minutes and at gradually increasing intervals (1 to 10 min) for the remaining time of the imaging study. The vascular and myocardial kinetics of F-18-FBnTP was analyzed using the ROI method."}, "[6]": {"system": "orthotopic NMU mammary tumor", "assay": "Uptake in NMU mammary tumor versus healthy gland and FCA inflammation", "assay_type": "in vivo", "settings": "NMU-bearing female rats, 60 min after injection, normalized to muscle", "text": "The carcinogen nitrosomethyl urea (NMU) induces carcinoma tumors solely in the mammary gland of female rats. Therefore, the orthotopic NMU mammary tumor is an excellent model for evaluating tracer tumor selectivity by contrasting radioactivity accumulating in mammary gland infested with carcinoma cells and healthy mammary gland. Freund Complete Adjuvant (FCA) is a well_studied inflammation agent in rats Induction of FCA inflammation in NMU-bearing rats allows for direct quantitation of tracer capability to differentiate carcinoma from inflammation.\n(§1) 0.1 ml of nitrosomethyl urea (NUM) was introduced i.p in female rats (150 g). When tumor reached an approximate size of 1 to 1.5 cm, FCA was injected (0.15 ml) to the hind limb footpad. Uptake assays were carried out 3 days thereafter. F-18-FBnTP (0.25 mCi) was injected via tail vein. Sixty minutes later tumor, inflamed tissue and healthy muscle tissue of the opposite limb (control) were collected on ice, weighed and counted in a gamma counter together with standards."}, "[7]": {"assay": "F-18-FBnTP myocardial accumulation in pacing model of heart failure (PET)", "assay_type": "in vivo, mongrel dog", "method": "Pacing of the mongrel dog heart at high rate (210 bpm) for a four weeks is a well-established model of heart failure. The advantage of this model is that the cardiomyopathy solely involve apoptosis without stenosis of coronary artery or related ischemia. Therefore, in this model the affect of apoptosis on FBnTP uptake can be dissected.\nMethods: Preparation of dog and data acquisition was performed as described above. Mongrel dog was installed with a pacemaker in the rib case and underwent FBnTP PET scan (presented above). Following the baseline scan, the dog_s heart was paced at a rate of 210 bpm for 4 weeks and a second scan was acquired.\nFIG. 18 depicts co-registered images before and after pacing. […] Quantitation of FBnTP in the myocardium was performed using region of interest placed on co-registered myocardial images, whose activity was normalized to the injected dose, before and after pacing. An example for ROI placement is illustrated in FIG. 18."}, "FCA-induced inflammation": {"system": "FCA-induced inflammation", "assay": "Accumulation in FCA-induced inflammation tissue and healthy muscle", "assay_type": "in vivo, rats", "settings": "for Inf/Control: ratio inflammation tissue to healthy muscle, 3 days after FCA; for Accumulation, Control: rats, healthy muscle, 3 days after administration of FCA", "method": "as §1\nThe accumulation of the novel F-18-phosphonium cations, F-18-FBnTP and F-18-fluoropropyl triphenyl phosphonium (F-18-FPTP) in comparison with F18-FDG in FCA-induced inflammation and healthy tissue is presented in Table 2. Induction of inflammation and activity counting were carried out as described above. Fluorophosphonium compounds accumulate in inflammation much less than FDG (Table 2). These date provide strong evidence to our claim that F-18-phosphonium compound are suitable for differentiation of tumor from inflammation and may resolve a major drawback of F-18-FDG. Table 2: Accumulation of Fluorophosphonium Compounds (FBnTP and FPTP) FDG in inflammation tissue and healthy muscle 3 days after administration of FCA."}, "[8]": {"settings": "cited from earlier work"}, "[9]": {"settings": "five-fold increases in flow rate / high flow rates"}}, "note": "Values joined by “and” are separate entries in the source; they are usually repeats but may differ in a detail not shown here. Equal entries are not always repeated. Where two headings read alike, the source gives them in different places.", "data": [{"compound": "[11CH3][P+](c1ccccc1)(c1ccccc1)c1ccccc1", "note": "[[11C]TPMP, C-11-triphenylmethyl phosphonium]", "values": [{"measurement": "decrease of the extraction fraction", "setting": "[1]", "value": 39, "unit": "%"}]}, {"compound": "[18F]c1ccc(C[P+](c2ccccc2)(c2ccccc2)c2ccccc2)cc1", "note": "[[18F]FBnTP, F-18-fluorobenzyl triphenyl phosphonium]", "values": [{"measurement": "total bone uptake", "setting": "[2]", "value": "minimal bone uptake"}, {"measurement": "MMP-dependent share of cellular uptake", "setting": "[3]", "value": 86, "unit": "%"}, {"measurement": "stable after intravenous injection of the tracer in vivo", "setting": "[4]; mice, plasma radiochromatograms", "value": "more than 30 min"}, {"measurement": "single radio-peak in plasma chromatography, share of total activity", "setting": "[4]; mouse plasma collected 5, 15 and 30 min p.i., no other peak observed", "value": 97, "unit": "%"}, {"measurement": "washout from the blood pool", "setting": "[5]; arterial blood samples", "value": "rapid washout"}, {"measurement": "time to equilibrium of accumulation in the myocardium", "setting": "[5]; persisted for the remaining scanning time (85 min)", "value": "within a few minutes"}, {"measurement": "uptake in tumor relative to healthy gland", "setting": "[6]", "value": 4, "unit": "times"}, {"measurement": "uptake in tumor relative to inflammation", "setting": "[6]; FCA inflammation 3 days", "value": 3, "unit": "times"}, {"measurement": "Ratio P/B", "setting": "[7]; Slices 36-37, ROI1", "value": 0.62}, {"measurement": "Ratio P/B", "setting": "[7]; Slices 36-37, ROI2", "value": 0.91}, {"measurement": "Ratio P/B", "setting": "[7]; Slices 36-37, ROI3", "value": 0.85}, {"measurement": "Ratio P/B", "setting": "[7]; Slices 46-49, ROI1", "value": 0.56}, {"measurement": "Ratio P/B", "setting": "[7]; Slices 46-49, ROI2", "value": 0.76}, {"measurement": "Ratio P/B", "setting": "[7]; Slices 46-49, ROI3", "value": 0.82}, {"measurement": "decrease in uptake in the inferior wall after pacing", "setting": "[7]; dog, 210 bpm for 4 weeks, p<0.001", "value": "40-60%"}, {"measurement": "Inf/Control", "setting": "FCA-induced inflammation", "value": 0.42}, {"measurement": "Accumulation, Control", "setting": "FCA-induced inflammation", "value": "0.76 ± 0.21", "unit": "% ID/g tissue"}]}, {"compound": "[18F]CCC[P+](c1ccccc1)(c1ccccc1)c1ccccc1", "note": "[[18F]FPTP, [^18F]3-fluoropropyltriphenyl-phosphonium ion]", "values": [{"measurement": "Inf/Control", "setting": "FCA-induced inflammation", "value": 0.25}, {"measurement": "Accumulation, Control", "setting": "FCA-induced inflammation", "value": "0.29 ± 0.06", "unit": "% ID/g tissue"}]}, {"compound": "OC[C@H]1OC(O)[C@H]([18F])[C@@H](O)[C@@H]1O", "note": "(some centres unmarked) [[^18F]FDG, reference compound]", "values": [{"measurement": "Inf/Control", "setting": "FCA-induced inflammation", "value": "1.20 and 2.12"}, {"measurement": "Accumulation, Control", "setting": "FCA-induced inflammation", "value": "1.05 ± 0.35 % ID/g tissue and 0.68 ± 0.14 % ID/g tissue"}]}, {"compound": "[99Tc].[C-]#[N+]CC(C)(C)OC.[C-]#[N+]CC(C)(C)OC.[C-]#[N+]CC(C)(C)OC.[C-]#[N+]CC(C)(C)OC.[C-]#[N+]CC(C)(C)OC.[C-]#[N+]CC(C)(C)OC", "note": "[[^99mTc]MIBI, Tc-99m-sestamibii]", "values": [{"measurement": "myocardial extraction", "setting": "[8]; baseline / normal flow", "value": "about 60%"}, {"measurement": "myocardial extraction", "setting": "[8]; [9]", "value": 40, "unit": "%"}]}, {"compound": "Thallium 201", "values": [{"measurement": "myocardial extraction", "setting": "[8]; baseline / normal flow", "value": "about 80%"}, {"measurement": "myocardial extraction", "setting": "[8]; [9]", "value": "about 60%"}]}]}
